Target: T1, MMP-1 (Homo sapiens, UniProt P03956)
T1 construct: made in house; host or cells: MMP-1-transfected HT-1080 cells (spent media)
T1 sequence (P03956 100-469): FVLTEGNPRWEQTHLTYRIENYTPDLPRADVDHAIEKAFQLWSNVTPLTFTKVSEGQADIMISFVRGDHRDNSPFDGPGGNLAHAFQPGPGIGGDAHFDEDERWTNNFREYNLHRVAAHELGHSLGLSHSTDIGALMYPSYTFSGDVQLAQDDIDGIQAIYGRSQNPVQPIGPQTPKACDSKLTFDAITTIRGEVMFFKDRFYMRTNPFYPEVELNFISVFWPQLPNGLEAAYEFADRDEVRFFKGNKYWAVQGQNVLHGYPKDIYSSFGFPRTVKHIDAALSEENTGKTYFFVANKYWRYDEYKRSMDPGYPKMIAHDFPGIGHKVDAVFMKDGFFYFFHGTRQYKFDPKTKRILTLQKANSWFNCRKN
Experiment: In vitro MMP inhibition, Ki determination (fluorogenic substrate II)
Type: biochemical
Conditions: value outside parentheses; read-out: MMP-1 Ki

SMILES	Ki
O=C(NO)C1(S(=O)(=O)N2CCC(N3CCN(c4ccc(Cl)cc4)CC3)CC2)CCOCC1 [Example 315]	> 10 µM
O=C(NO)C1(S(=O)(=O)N2CCC(c3ccc(-c4ccccc4)cn3)CC2)CCOCC1 [Example 392]	3.43 µM
O=C(NO)C1(S(=O)(=O)N2CCC(COCC(F)(F)C(F)(F)C(F)(F)F)CC2)CCOCC1 [Example 377]	> 10 µM
O=C(NO)C1(S(=O)(=O)N2CCN(c3ncc(-c4ccccn4)s3)CC2)CCOCC1 [Example 387]	> 10 µM
O=C(NO)C1(S(=O)(=O)N2CCC(COCC(F)(F)C(F)(F)F)CC2)CCOCC1 [Example 376]	> 10 µM
O=C(NO)C1(S(=O)(=O)N2CCC(COCC(F)(F)C(F)F)CC2)CCOCC1 [Example 375]	> 10 µM
CCCCc1ccc(-c2cnc(N3CCN(S(=O)(=O)C4(C(=O)NO)CCOCC4)CC3)s2)cc1 [Example 379]	> 10 µM
COC(=O)c1ccc(N2CCN(S(=O)(=O)C3(C(=O)NO)CCOCC3)CC2)cc1 [Example 324]	1.86 µM
O=C(NO)C1(S(=O)(=O)N2CCC(c3ccc(CCC(F)(F)F)cn3)CC2)CCOCC1 [Example 367]	9.76 µM
O=C(NO)C1(S(=O)(=O)N2CCN(c3cnn(CCCC(F)(F)F)c(=O)c3)CC2)CCOCC1 [Example 321]	> 10 µM
O=C(NO)C1(S(=O)(=O)N2CCC(c3ccc(CCCC(F)(F)F)cc3)CC2)CCOCC1 [Example 353]	8.58 µM
O=C(NO)C1(S(=O)(=O)N2CCN(c3ccc(OCC(F)(F)C(F)F)cc3)CC2)CCOCC1 [Example 326]	6.58 µM
O=C(NO)C1(S(=O)(=O)N2CCN(c3ncc(-c4ccc([N+](=O)[O-])cc4)s3)CC2)CCOCC1 [Example 363]	2.35 µM
CCc1ccc(C2CCN(S(=O)(=O)C3(C(=O)NO)CCN(CCOC)CC3)CC2)s1 [Example 314]	> 10 µM
CCCCOc1ccc(N2CCN(S(=O)(=O)C3(C(=O)NO)CCN(CCOC)CC3)CC2)nc1 [Example 325]	7.51 µM
CCCCc1ccc(C2CCN(S(=O)(=O)C3(C(=O)NO)CCOCC3)CC2)nc1 [Example 323]	6.21 µM
O=C(NO)C1(S(=O)(=O)N2CCN(c3ncc(-c4ccc(OC(F)(F)F)cc4)s3)CC2)CCOCC1 [Example 364]	3.94 µM
O=C(NO)C1(S(=O)(=O)N2CCN(c3ncc(-c4ccc(Cl)cc4)s3)CC2)CCOCC1 [Example 343]	5.25 µM
O=C(NO)C1(S(=O)(=O)N2CCN(c3ccc(OCCCC(F)(F)F)cc3)CC2)CC(O)C1 (centres unmarked) [Example 342]	> 10 µM
O=C(NO)C1(S(=O)(=O)N2CCC(c3ccc(OCC(F)(F)C(F)(F)F)cc3)CC2)CCOCC1 [Example 330]	5.36 µM
O=C(NO)C1(S(=O)(=O)N2CCC(c3ccc(OC(F)(F)C(F)(F)F)cc3)CC2)CCOCC1 [Example 349]	> 10 µM
O=C(NO)C1(S(=O)(=O)N2CCN(c3ncc(-c4ccc(F)cc4F)s3)CC2)CCOCC1 [Example 359]	2.6 µM
O=C(NO)C1(S(=O)(=O)N2CCN(c3ccc(CCC(F)(F)C(F)(F)F)cc3)CC2)CCN(C2CC2)CC1 [Example 335]	> 10 µM
CC(C)c1ccc(-c2cnc(N3CCN(S(=O)(=O)C4(C(=O)NO)CCOCC4)CC3)s2)cc1 [Example 366]	2.16 µM
O=C(NO)C1(S(=O)(=O)N2CCN(c3ccc(CCCC(F)(F)F)cc3)CC2)CCOCC1 [Example 320]	> 10 µM

SMILES	Ki
O=C(O)c1ccc(N2CCN(S(=O)(=O)C3(C(=O)NO)CCOCC3)CC2)cc1 [Example 352]	> 10 µM
CCCCCc1ccc(-c2cnc(N3CCN(S(=O)(=O)C4(C(=O)NO)CCOCC4)CC3)s2)cc1 [Example 380]	> 10 µM
O=C(NO)C1(S(=O)(=O)N2CCN(c3ncc(-c4ccc(Cl)c(Cl)c4)s3)CC2)CCOCC1 [Example 369]	> 10 µM
O=C(NO)C1(S(=O)(=O)N2CCN(c3ccc(-c4ccccc4F)cn3)CC2)CCOCC1 [Example 317]	2.41 µM
CCCCc1ccc(C2CCN(S(=O)(=O)C3(C(=O)NO)CCN(CC)CC3)CC2)nc1 [Example 396]	> 10 µM
COCCN1CCC(C(=O)NO)(S(=O)(=O)N2CCN(c3ncccn3)CC2)CC1 [Example 332]	5.11 µM
NC(=O)c1ccccc1-c1cnc(N2CCN(S(=O)(=O)C3(C(=O)NO)CCOCC3)CC2)s1 [Example 383]	> 10 µM
O=C(NO)C1(S(=O)(=O)N2CCN(c3ccc(-c4ccc(Cl)c(Cl)c4)cc3)CC2)CCOCC1 [Example 328]	3.72 µM
O=C(NO)C1(S(=O)(=O)N2CCC(c3ccc(-c4cccs4)cn3)CC2)CCOCC1 [Example 394]	2.75 µM
O=C(NO)C1(S(=O)(=O)N2CCN(c3ncc(-c4ccc(F)cc4)s3)CC2)CCOCC1 [Example 345]	5.54 µM
O=C(NO)C1(S(=O)(=O)N2CCN(c3cccc(OCCCC(F)(F)F)c3)CC2)CCOCC1 [Example 355]	> 10 µM
O=C(NO)C1(S(=O)(=O)N2CCN(c3ccc(CCCC(F)(F)F)cc3F)CC2)CCOCC1 [Example 386]	> 10 µM
O=C(NO)C1(S(=O)(=O)N2CCN(c3ncc(-c4ccc5c(c4)OCO5)s3)CC2)CCOCC1 [Example 362]	2.12 µM
CCc1ccc(-c2cnc(N3CCN(S(=O)(=O)C4(C(=O)NO)CCOCC4)CC3)s2)cc1 [Example 381]	3.25 µM
O=C(NO)C1(S(=O)(=O)N2CCN(c3cnn(-c4ccccc4)c(=O)c3)CC2)CCOCC1 [Example 322]	> 10 µM
O=C(NO)C1(S(=O)(=O)N2CCC(c3ccc(OCC(F)(F)C(F)F)cc3)CC2)CCN(CCN2CCOCC2)CC1 [Example 385]	> 10 µM
CCC=C1CCN(S(=O)(=O)C2(C(=O)NO)CCOCC2)CC1 [Example 374]	0.303 µM
CCCCc1cnc(N2CCN(S(=O)(=O)C3(C(=O)NO)CCN(CCOC)CC3)CC2)nc1 [Example 334]	> 10 µM
O=C(NO)C1(S(=O)(=O)N2CCN(c3ccc(OCC(F)(F)C(F)F)cc3)CC2)CCOCC1 [Example 336]	2.64 µM
O=C(NO)C1(S(=O)(=O)N2CCN(c3ncc(-c4ccc(-c5ccccc5)cc4)s3)CC2)CCOCC1 [Example 360]	> 2.5 µM
O=C(NO)C1(S(=O)(=O)N2CCN(c3ncc(-c4ccc(C(F)(F)F)cc4)s3)CC2)CCOCC1 [Example 346]	5.69 µM
O=C(NO)C1(S(=O)(=O)N2CCC(c3ccc(-c4ccc(C(F)(F)F)cc4)cn3)CC2)CCOCC1 [Example 395]	> 10 µM
O=C(NO)C1(S(=O)(=O)N2CCC(COCc3ccccc3)CC2)CCOCC1 [Example 373]	> 10 µM
O=C(NO)C1(S(=O)(=O)N2CCN(c3ccc(OCC4CC4)c(F)c3)CC2)CCOCC1 [Example 333]	> 10 µM
CCCCOc1cccc(N2CCN(S(=O)(=O)C3(C(=O)NO)CCOCC3)CC2)c1 [Example 354]	> 10 µM

Reference: patent US20050209278A1, “Piperidinyl- and piperazinyl-sulfonylmethyl hydroxamic acids and their use as protease inhibitors” (priority 2002, published 2005)
